Measured values published in US20200148682A1, “AKT ISOZYME-SPECIFIC COVALENT INHIBITORS DERIVED FROM REDOX-SIGNALING LIPIDS” (Cornell University, priority 2017, published 2020).
Values joined by “and” are separate entries in the source; they are usually repeats but may differ in a detail not shown here. Equal values may be shown once.

Assays:
Assay type in all cases: cell-based
MDA-MB-468 cells [1] = assay: Assay for drug synergism with Akt isoform-specific knockdown; details: for Fold Selectivity (MK-FNE vs MK-2206 sensitization by knockdown): 72 hours
Method: MDA-MB-468 cells were plated in a 6-well plate to reach 80% confluence 10 hours post seeding. […] The cells were allowed to grow for 12 hours before addition of an equivalent volume of rinse medium containing varying concentrations of MK-2206, MK-FNE, or DMSO. The cells continued to grow for 72 hours before adding 1/10th volume of AlamarBlue® reagent to culture medium. The fluorescence emission signals at 590 nm were read by Cytation 3 cell imaging multi-mode reader (BioTeK) using an excitation wavelength of 560 nm. Curve fitting and data analysis were performed using Prism software. The effect of the different knockdowns on the drug action was expressed by calculating the fold selectivity (S): […]

MDA-MB-468 cells [2] = assay: Cell cycle analysis using flow cytometry; details: for effect on cell cycle: 72 hours
Method: MDA-MB-468 cells in a 6-well plate at 10% confluence were treated with HNE alkyne or the indicated drug at PI60 or PI80 concentration for 72 hours at 37° C. Negative control contained the equivalent volume of DMSO. Cells were grown and analyzed in separate batches of 1-2 replicates per condition that were run 2-3 times each. Each time the data points were normalized to the control set for each batch. At the indicated time post compound treatment, the culture medium was aspirated and the adherent cells were detached from the plate using trypsin, quenched with complete media, centrifuged (700 g), washed once with PBS, centrifuged (700 g), resuspended in PBS, then fixed with 70% ethanol for 24 hours. The cell suspensions were spun down at 1,000 g and washed with 500 μl of PBS twice. Each cell pellet was treated with 500 μL staining solution containing 50 μl of Ribonuclease A (≥70 Kunitz units/mg proteins, R6513, Sigma-Aldrich) and 50 μl of a propidium iodide (1 mg/ml, Sigma-Aldrich) solution in PBS with 1% BSA. The resulting solution was incubated with agitation at room temperature for 30 min in the dark.
The stained cells were assayed on a BD LSR II flow cytometer. FlowJo® was used to deconvolute the signals. Cells were grouped first by forward and side scatter (area), then that group was regrouped using forward (width) versus forward (area) scatter to give single cells. Cells were than analyzed using cellular DNA content to quantitate the percentage of cells in the respective phases (G1, S, G2/M and sub-G0) of the cell cycle.

[3] = test system: six other cultured cell lines (breast cancer lines not PTEN-null TNBC, fibroblast lines); assay: Cell viability assay (AlamarBlue), six other cultured cell lines; details: for toxicity and selectivity across cell lines: 3 days
Method: After this time, cells were lysed and analyzed by antibodies for phosphorylated T305 (pT305) of Akt3, Halo (Akt), and Actin (loading control). […] FIG. 23F is a graph showing proliferation curves. […] After this time, the number of viable cells was calculated using AlamarBlue®. Proliferation curves were fitted to the PI50 equation (EQN. 4). […] FIG. 23H is a graph showing the percentage of viable cells. […] The percentage of growth relative to DMSO-treated cells is shown for the 48 hour point and the 72 hour point. FIG. 23I is a schematic showing the different methods used to derive the data in 23H.
Indicated cells were plated in a 96-well plate containing the DMEM complete medium (see Example 11 for complete medium formulation, 100 μL per well) with a density of 3,000-5,000 cells per well for 12 hours followed by the addition of varying concentrations of inhibitors in rinse medium (100 μL). The cells were allowed to grow for 72 hours and 100 μL of the culture medium was removed from each well. This was followed by the addition of 10 μL AlamarBlue® reagent to each well. The fluorescence emission signals at 590 nm were read by Cytation 3 cell imaging multi-mode reader (BioTeK) using an excitation wavelength of 560 nm. Curve fitting and data analysis were performed using Prism software.

[4] = knockdown of Akt3 (approximately 40-60%)

Compound: NC1(c2ccc(-c3nc4ccn5c(=O)[nH]nc5c4cc3-c3ccccc3)cc2)CCC1 [MK-2206]
- sensitization to toxicity relative to control knockdown cells (MDA-MB-468 cells [1]; [4]): 2-3 fold
- G1/G0 (percentage of cells in phase) (MDA-MB-468 cells [2]; drug at PI60, 72 hours): 41.8
- G2/M (percentage of cells in phase) (MDA-MB-468 cells [2]; drug at PI60, 72 hours): 31.3
- S (percentage of cells in phase) (MDA-MB-468 cells [2]; drug at PI60, 72 hours): 25.4
- subG0 (percentage of cells in phase) (MDA-MB-468 cells [2]; drug at PI60, 72 hours): 0.3
- G1/G0 (percentage of cells in phase) (MDA-MB-468 cells [2]; drug at PI80, 72 hours): 50.2
- G2/M (percentage of cells in phase) (MDA-MB-468 cells [2]; drug at PI80, 72 hours): 29.0
- S (percentage of cells in phase) (MDA-MB-468 cells [2]; drug at PI80, 72 hours): 19.6
- subG0 (percentage of cells in phase) (MDA-MB-468 cells [2]; drug at PI80, 72 hours): 0.3
- toxicity and selectivity across cell lines [3]: generally toxic to most lines

Compound: C#CCCCC(F)/C=C/C(=O)NC1(c2ccc(-c3nc4ccn5c(=O)[nH]nc5c4cc3-c3ccccc3)cc2)CCC1.Cl (centres unmarked) [MK-FNE, (E)-8-(4-(1-(4-Fluoronon-2-en-8-ynamido)cyclobutyl)phenyl)-3-oxo-9-phenyl-2,3-dihydro-[1,2,4]triazolo[3,4-f][1,6]naphthyridin-7-ium Chloride]
- sensitization to toxicity relative to control knockdown cells (MDA-MB-468 cells [1]; Akt1 or Akt2 knockdown (approximately 40-60%), on average): around 2 fold
- sensitization to toxicity relative to control knockdown cells (MDA-MB-468 cells [1]; [4]): around 8 fold
- Fold Selectivity (MK-FNE vs MK-2206 sensitization by knockdown) (MDA-MB-468 cells [1]; siAKT1, two siRNAs): 0.5 and 0.4
- Fold Selectivity (MK-FNE vs MK-2206 sensitization by knockdown) (MDA-MB-468 cells [1]; siAKT3, two siRNAs): 3.9 and 3.7
- effect on cell cycle (MDA-MB-468 cells [2]): G1 arrest
- G1/G0 (percentage of cells in phase) (MDA-MB-468 cells [2]; drug at PI60, 72 hours): 47.0
- G2/M (percentage of cells in phase) (MDA-MB-468 cells [2]; drug at PI60, 72 hours): 33.3
- S (percentage of cells in phase) (MDA-MB-468 cells [2]; drug at PI60, 72 hours): 18.6
- subG0 (percentage of cells in phase) (MDA-MB-468 cells [2]; drug at PI60, 72 hours): 0.5
- G1/G0 (percentage of cells in phase) (MDA-MB-468 cells [2]; drug at PI80, 72 hours): 58.9
- G2/M (percentage of cells in phase) (MDA-MB-468 cells [2]; drug at PI80, 72 hours): 27.0
- S (percentage of cells in phase) (MDA-MB-468 cells [2]; drug at PI80, 72 hours): 11.9
- subG0 (percentage of cells in phase) (MDA-MB-468 cells [2]; drug at PI80, 72 hours): 0.8
- toxicity and selectivity across cell lines [3]: significantly selective against PTEN-null TNBC lines
- PI50(MK-FNE)/PI50(MK-2206) ([3]; all but PTEN-null TNBC lines, except TSE): greater than 2
- PI50(MK-FNE)/PI50(MK-2206) ([3]; some lines): above 8

Compound: C#CCCCC(O)/C=C/C(=O)NC1(c2ccc(-c3nc4ccn5c(=O)[nH]nc5c4cc3-c3ccccc3)cc2)CCC1.Cl (centres unmarked) [MK-HNE, (E)-8-(4-(1-(4-Hydroxynon-2-en-8-ynamido)cyclobutyl)phenyl)-3-oxo-9-phenyl-2,3-dihydro-[1,2,4]triazolo[3,4-f][1,6]naphthyridin-7-ium Chloride]
- effect on cell cycle (MDA-MB-468 cells [2]): G1 arrest
- G1/G0 (percentage of cells in phase) (MDA-MB-468 cells [2]; drug at PI60, 72 hours): 41.7
- G2/M (percentage of cells in phase) (MDA-MB-468 cells [2]; drug at PI60, 72 hours): 30.3
- S (percentage of cells in phase) (MDA-MB-468 cells [2]; drug at PI60, 72 hours): 25.9
- subG0 (percentage of cells in phase) (MDA-MB-468 cells [2]; drug at PI60, 72 hours): 0.4
- G1/G0 (percentage of cells in phase) (MDA-MB-468 cells [2]; drug at PI80, 72 hours): 49
- G2/M (percentage of cells in phase) (MDA-MB-468 cells [2]; drug at PI80, 72 hours): 25.5
- S (percentage of cells in phase) (MDA-MB-468 cells [2]; drug at PI80, 72 hours): 16.6
- subG0 (percentage of cells in phase) (MDA-MB-468 cells [2]; drug at PI80, 72 hours): 5.5
